Where “and” joins values, the source holds several entries; their conditions need not be identical. Identical values can stand only once.
Tests used:
[1] = system: T. b. brucei strain resistant to pentamidine (B48); assay: microbe, parasite or virus in culture; assay type: cell-based; details: for EC50: Trypanosoma brucei, read-out: T. b. brucei EC50 B48
[2] = system: Bloodstream form trypomastigotes of T. b. brucei strain 427 (WT); assay: Resazurin-based susceptibility assay, wild-type T. b. brucei; assay type: cell-based; details: for EC50: BSF trypomastigotes strain 427, n = 3; for trypanocidal activity against T. brucei (in words): compounds with short linkers (C-3)
Method: . […] This finding was in agreement with previous reports on TAO inhibitors showing that a decrease in efficacy against T. b. brucei growth inhibition was observed as chain length decreased.[8],[9],[23]
(§1) BSF trypanosomes of monomorphic strains Lister 427 (WT), multi-drug-resistant clone B48, and the AQP1-3 KO, which lacks all aquaglyceroporins,[26] were grown in complete HMI-9 with 10% fetal bovine serum, exactly as described, and tested using a standard resazurin-based assay with 23 doubling dilutions for each compound starting at 100 μM.[27] Human embryonic kidney (HEK) cells were cultured and assayed with a resazurin-based assay exactly as described previously.[9] EC50 values were calculated by nonlinear regression with an equation for a sigmoid curve with variable slope (Prism 8.0, GraphPad).

[3] = in vitro; details: human
[4] = system: human embryonic kidney (HEK) cells; details: HEK CC50 / T. b. brucei WT EC50
[5] = system: T. brucei cell line from which all aquaporins were knocked out (AQP1-3 KO); assay: microbe, parasite or virus in culture; assay type: cell-based, T. b. brucei; details: for EC50: Trypanosoma brucei, read-out: T. b. brucei EC50 AQP1-3 KO; for RF (resistance factor relative to WT), AQP1-3 KO: EC50 AQP1-3 KO / EC50 WT
Method: as §1

[6] = molecular target: Purified recombinant trypanosome alternative oxidase (ΔMTS-TAO) (Trypanosoma brucei brucei, UniProt Q26710); assay: Inhibition of ubiquinol oxidase activity of purified ΔMTS-TAO; details: for IC50: rTAO IC50, purified ΔMTS-TAO, n = 3; for inhibition at 40 µM: read-out: rTAO % inhibition at 40 μM; for inhibition at 10 µM: read-out: rTAO % inhibition (compound tested at 10 μM)
Chain of Purified recombinant trypanosome alternative oxidase (ΔMTS-TAO) (Q26710 26-329, stated change not applied): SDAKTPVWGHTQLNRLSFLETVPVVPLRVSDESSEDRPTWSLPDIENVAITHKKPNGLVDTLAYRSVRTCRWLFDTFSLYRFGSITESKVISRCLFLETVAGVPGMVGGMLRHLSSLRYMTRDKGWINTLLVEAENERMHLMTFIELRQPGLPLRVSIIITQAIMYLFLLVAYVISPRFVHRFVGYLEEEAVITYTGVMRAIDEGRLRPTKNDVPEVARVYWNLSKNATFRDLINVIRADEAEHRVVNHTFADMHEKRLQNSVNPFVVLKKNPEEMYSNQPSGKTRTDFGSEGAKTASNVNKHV

SMILES	EC50 [1]	EC50 ([2]; Trypanosoma brucei)	trypanocidal activity against T. brucei (in words) [2]	CC50 [3]	SI (selectivity index) = CC50/EC50 (WT) [4]	EC50 [5]	IC50 [6]	inhibition at 40 µM [6]	EC50 [2]	inhibition at 10 µM [6]	melting point	RF (resistance factor relative to WT), AQP1-3 KO [5]	fold lower EC50 versus 7d ([2]; T. brucei WT EC50 of 20 versus 7d)	TAO inhibition (in words) [6]	RF (resistance factor relative to WT), B48 ([1]; EC50 B48 / EC50 WT)
CC(=O)O.Cc1cc(O)cc(O)c1C(=O)NCCCOc1ccc(C(=N)N)cc1 [1a]	> 100 µM	> 100 µM	inactive	> 200 µM	–	–	–	–	–	–	–	–	–	–	–
CC(=O)O.Cc1cc(O)cc(O)c1C(=O)NCCCCCCOc1ccc(C(=N)N)cc1 [1b]	28 ± 0.5 µM	15.5 ± 0.6 µM	–	> 200 µM	>12.9	17.4 ± 0.9 µM	> 40 µM	12.5%	–	–	–	–	–	–	–
CC(=O)O.Cc1cc(O)cc(O)c1C(=O)NCCCCCCCCCCCCOc1ccc(C(=N)N)cc1 [1c]	3.6 ± 0.1 µM	< 4 µM	–	43.5 ± 5.4 µM	13.2	–	> 40 µM	39.3%	3.3 ± 0.2 µM	–	–	–	–	–	–
Cc1cc(O)cc(O)c1C(=O)NCCCCCCCCCCCCCCOc1ccc(C(=N)N)cc1 [1d]	28.9 ± 5.2 µM	18.6 ± 1.1 µM	–	> 200 µM	–	–	> 40 µM	31.4%	–	–	–	–	–	–	–
CC(=O)O.Cc1cc(O)cc(O)c1C(=O)NCCCCCCCCCCCCOc1ccc(C2=NCCN2)cc1 [2c]	–	–	–	67.2 ± 0.8 µM	39.1	2.9 ± 0.4 µM	> 10 µM	–	–	10%	–	–	–	–	–
CC(=O)O.Cc1cc(O)cc(O)c1C(=O)NCCCCCCCCCCCCOc1ccc(N=C2NCCN2)cc1 [3c]	–	< 4 µM	–	> 100 µM	>36.5	3.92 ± 0.03 µM	22.5 ± 0.3 µM	–	2.7 ± 0.4 µM	46.3%	44.5 to 51.1 °C	–	–	–	–
Cc1cc(O)cc(O)c1C(=O)NCCCOc1ccc(C#N)cc1 [7a]	50.8 ± 2.7 µM	37.2 ± 3.4 µM	poorly active	> 200 µM	>5.3	–	> 40 µM	28.8%	–	–	–	–	–	–	–
Cc1cc(O)cc(O)c1C(=O)NCCCCCCOc1ccc(C#N)cc1 [7b]	27.7 ± 2 µM	30.4 ± 0.4 µM	–	> 200 µM	–	30.5 ± 0.7 µM	1.52 µM and 1.5 µM	96.2%	–	–	–	–	–	–	–
Cc1cc(O)cc(O)c1C(=O)NCCCCCCCCCCCCOc1ccc(C#N)cc1 [7c]	15.9 ± 0.7 µM	15.6 ± 0.7 µM	–	57.1 ± 0.1 µM	3.7	–	> 40 µM	27.4%	–	–	81.9 °C	–	–	–	–
Cc1cc(O)cc(O)c1C(=O)NCCCCCCCCCCCCCCOc1ccc(C#N)cc1 [7d]	15.7 ± 0.5 µM	14.8 ± 0.5 µM	–	56.8 ± 0.2 µM	3.8	–	16.4 ± 0.7 µM	89.7%	–	–	–	–	–	–	–
Cc1cc(O)cc(O)c1C(=O)NCCCOc1ccc(C(=N)NO)cc1 [8a]	> 100 µM	> 100 µM	inactive	> 200 µM	–	–	> 40 µM	14.1%	–	–	–	–	–	–	–
Cc1cc(O)cc(O)c1C(=O)NCCCCCCOc1ccc(C(=N)NO)cc1 [8b]	36 ± 1.8 µM	19.5 ± 1 µM	–	76.8 ± 7.2 µM	3.9	21 ± 1 µM	> 40 µM	-14.9%	–	–	–	–	–	–	–
Cc1cc(O)cc(O)c1C(=O)NCCCCCCCCCCCCOc1ccc(C(=N)NO)cc1 [8c]	9.1 ± 0.5 µM	8.4 ± 1.1 µM	–	109 ± 1.6 µM	13	–	> 40 µM	44.8%	–	–	–	–	–	–	–
Cc1cc(O)cc(O)c1C(=O)NCCCCCCCCCCCCCCOc1ccc(C(=N)NO)cc1 [8d]	27.1 ± 2.4 µM	29 ± 2.2 µM	–	> 200 µM	–	–	> 40 µM	-3.4%	–	–	–	–	–	–	–
Cc1cc(O)cc(O)c1C(=O)NCCCCCCCCCCCCOc1ccc([N+](=O)[O-])cc1 [11c]	–	9.5 ± 0.5 µM	–	> 100 µM	>10.5	10.2 ± 0.7 µM	30 ± 1.5 µM	–	–	53.8%	102.3 to 106.3 °C	–	–	–	–
Cc1cc(O)cc(O)c1C(=O)NCCCCCCCCCCCCOc1ccc(N)cc1 [12c]	–	20.3 ± 1.3 µM	–	> 100 µM	>4.9	29.6 ± 2.2 µM	–	–	–	–	–	1.5	–	–	–
Cc1cc(O)cc(O)c1C(=O)NCCCCCCCCCCCCOc1ccc(N=C2N(C(=O)OC(C)(C)C)CCN2C(=O)OC(C)(C)C)cc1 [14c]	–	10.4 ± 0.7 µM	–	> 100 µM	>9.6	15.7 ± 0.3 µM	–	–	–	–	–	1.5	–	–	–
C/C(=C\Cc1c(O)c(Cl)c(C)c(C=O)c1O)CC/C=C(\C)[C@@H]1CC(=O)C(C)(C)O1 [ascofuranone, reference compound]	–	–	–	–	–	–	–	100%	–	–	–	–	–	–	–
Cc1cc(O)c(C(=O)CCCCCCCCCCCCCCCOc2ccc(C#N)cc2)c(O)c1 [compound 20]	–	5.8 ± 0.7 µM	–	> 100 µM	>17.1	8.2 ± 0.9 µM	> 10 µM	–	–	13.4%	–	–	2.5 fold	lack of TAO inhibition	–
Cc1cc(O)cc(OC(=O)CCCCCCCCCCCCCCCOc2ccc(C#N)cc2)c1 [compound 21]	–	> 100 µM	–	> 100 µM	–	> 100 µM	> 10 µM	–	–	30%	–	–	–	–	–
N=C(N)c1ccc(/N=N/Nc2ccc(C(=N)N)cc2)cc1 [diminazene, reference compound]	0.107 ± 0.019 µM	0.095 ± 0.011 µM	–	–	–	–	–	–	–	–	–	–	–	–	1.1
N=C(N)c1ccc(OCCCCCOc2ccc(C(=N)N)cc2)cc1 [pentamidine, reference compound]	0.208 ± 0.021 µM	0.004 ± 0.001 µM	–	–	–	0.046 ± 0.003 µM	–	–	–	–	–	–	–	–	–

Source: publication PMC8842630, “Imidazoline- and Benzamidine-Based Trypanosome Alternative Oxidase Inhibitors: Synthesis and Structure–Activity Relationship Studies” (ACS Medicinal Chemistry Letters, 2022)
